Values joined by “and” are separate entries in the source; they are usually repeats but may differ in a detail not shown here. Identical values can stand only once. “Also recorded” adds a separate entry of the source.
Assays:
[1] = test system: osteopontin; experiment: Assay B: osteopontin immunohistochemistry in the heart; assay type: in vivo, Male Sprague Dawley rats; conditions: aldosterone-infused rats, eplerenone 100 mpk, increased dietary potassium group
Protocol: Assay B: In Vivo Aldosterone Infusion Model Male Sprague Dawley rats (n=39; BW=250 g) 2. Aldosterone (0.75 mg/hr, sc via alzet minipump) 2. […] Determination of osteopontin and COX-2 was performed by quantitative RT-PCR (Taqman). Osteopontin was also identified in the heart by immunohistochemistry.

[2] = test system: Osteopontin; experiment: Assay C: osteopontin mRNA in heart by TaqMan RT-PCR; assay type: in vivo, Male Sprague-Dawley rats; conditions: for Osteop-pontin mRNA (AU): relative to cyclophilin expression, mean ± SEM, eplerenone dose 100 mg/kg/day; for Osteopontin (AU): mRNA, individual rats, incl. rat marked * excluded from statistics
Protocol: (§1) The procedure of Assay B was expanded upon in a further study. […] Myocardial tissue from animals in each treatment group was examined after 7, 14, or 30 days of treatment.
(§2) Potassium chloride supplementation was added to the saline solution in order to prevent the potential hypokalemia associated with aldosterone excess.
(§3) At the time of the surgery, an Alzet 2002 osmotic minipump (Alza Corp., Palo Alto, Calif.) containing either vehicle (9% ethanol/87% propylene glycol/4% dH2O) or 1.0 mg/mL d-aldosterone (Sigma Chemical, St. Louis, Mo.) was inserted subcutaneously at the nape of the neck. Aldosterone was administered at a dose of 0.75 µg/hour. […] Animals were sacrificed from each group (n=8-13) after 7, 14, or 30 days of treatment.
(§4) The fluorogenic 5′-nuclease assay (TaqMan PCR) using Applied Biosystems' 7700 Sequence Detection System (Applied Biosystems, Foster City, Calif.) allowed for real time detection/quantitation of a specific gene by monitoring the increase in fluorescence of a gene-specific, dye-labeled oligonucleotide probe. Probes for target and reference genes were labeled at the 5′-end with a 6-carboxyfluorescein (6FAM) reporter dye and at the 3′-end with a 6-carboxy-N,N,N′,N′-tetramethylrhodamine (TAMRA) quencher dye. When the probe was annealed to the target gene, fluorescence of 6FAM was prevented by the close proximity of TAMRA. The exonuclease activity of Taq polymerase released the dyes from the oligonucleotide probe by displacing the probe from the target sequence resulting in fluorescence excitation in direct proportion to the amount of target message present. Data analysis was performed using the Sequence Detection System software from Applied Biosystems.
All primers and probes were designed using Primer Express software supplied with the 7700 Sequence Detection System and synthesized by Applied Biosystems. Standard curves using 5-fold dilutions of total RNA (from 200 ng to 320 pg) were performed to determine the efficiency of each primer/probe set in the TaqMan reaction prior to the analysis of the experimental samples. Primer/probe sets were designed from known sequences of rat genes to be analyzed. All target gene values were normalized to a reference gene, constitutively expressed cyclophilin. Primer/probe set sequences can be found in Table 8.
RNA was extracted from frozen (−80° C.) rat heart tissue using the Totally RNA Isolation Kit (Ambion, Inc., Austin, Tex.). Tissue was crushed using a stainless steel mortar and pestle, which had been chilled to −80° C. and transferred to a dounce homogenizer (Kontes, Vineland, N.J.) containing 3-10 mL cold denaturation buffer. Tissue was homogenized and transferred to a sterile, 15 mL polypropylene centrifuge tube. An equal volume of phenol:chloroform:isoamyl alcohol (25:24:1) was added, samples were shaken vigorously for 1 min, and incubated on ice for at least 15 min. Samples were centrifuged for 30 min at 10,000g. The aqueous phase was removed, 1/10 volume of a sodium acetate solution (3.0 M NaOAc pH 4.5) was added, samples were shaken or inverted for 10 seconds, and acid-phenol (premixed with isoamyl alcohol):chloroform (5:1, Ambion, Inc.) was added at an volume equivalent to the starting sample volume. Samples were shaken vigorously for 1 min, followed by a 15-min incubation on ice, and centrifuged for 30 min at 10,000 g. The aqueous phase removed and placed in a clean polypropylene tube. An equal volume of isopropanol (Sigma, St. Louis, Mo.) was added and the samples were mixed and incubated overnight at −20° C. The samples were centrifuged for 30 min at 10,000 g, the supernatant was removed and the RNA pellet was resuspended in DNAse/RNAse-free water. Samples were frozen at −80° C. for at least 2 hours, thawed on wet ice, and diluted for quantitation.

[3] = test system: Collagen III; experiment: Assay C: Collagen III mRNA by TaqMan RT-PCR; assay type: in vivo, Male Sprague-Dawley rats; conditions: for Collagen-III (AU): collagen type III mRNA relative to cyclophilin, eplerenone dose 100 mg/kg/day
Protocol: as §1, §2, §3, §4
Primers and probes were designed using Oligo Primer Analysis Software, Version 5.0 (National Biosciences Inc. (NBI)-Wojciech Rychlik, Cascade, Colo.). Primers were synthesized by Life Technologies (Grand Island, N.Y.) and probes were synthesized by Applied Biosystems. Primer/probe sets were designed from known sequences of rat genes to be analyzed. All target gene values were normalized to a reference gene, constitutively expressed cyclophilin. Primer/probe sets sequences can be found in Table 8
RNA was extracted from frozen (−70° C.) left ventricle (LV) tissue (approximately 10-20 mg) using 1.5 mL RNA-STAT 60 according to manufacturer's instructions (Leedo Medical Laboratories, Inc., Houston, Tex.). Briefly, tissues were homogenized using a tissue homogenizer equipped with a 5 mm probe (Ultra-Turrax T8 Homogenizer, IKA Works, Inc. Wilmington, N.C.). Following homogenization, an equal volume of molecular grade chloroform (Sigma Chemical Co., St. Louis, Mo.) was incubated with periodic mixing for 10 min at room temperature. Samples were centrifuged at 12,000 g for 10 min and RNA was precipitated from the top layer by adding an equal volume of molecular grade isopropanol (Sigma Chemical Co.) followed by an overnight incubation at −80° C. RNA was pelleted by centrifugation at 12,000 g, washed with 75% ethanol, and solubilized in nuclease-free water (Promega, Madison, Wis.).
Double-stranded cDNA was synthesized by adding 400 ng RNA (4 uL) to a final volume of 20 uL containing 15% nuclease-free water (Promega, Madison, Wis.), 1×RT Buffer (Life Technologies, Grand Island, N.Y.), 10 mM DTT (Life Technologies), 0.5 mM each of dATP, dTTP, dGTP, dCTP (PE Biosystems, Foster City, Calif.), 2.5 μM Oligo d(T)15 (Oligo Therapeutics, Inc., Wilsonville, Oreg.), 40 units RNAsin (Promega), and 200 units SuperScript II Reverse Transcriptase (Life Technologies). The reactions were performed in thin-walled reaction tubes with caps (Applied Biosystems) to ensure accurate reaction temperatures.

[4] = test system: IL-6; experiment: Assay B: IL-6 mRNA expression at 28 days; assay type: in vivo, Male Sprague Dawley rats; conditions: aldosterone infused rats, 28 days (FIG. 46)
Protocol: Assay B: In Vivo Aldosterone Infusion Model Male Sprague Dawley rats (n=39; BW=250 g) 2. Aldosterone (0.75 mg/hr, sc via alzet minipump) 2.

[5] = mean ± SEM after 7 days of treatment
[6] = mean ± SEM after 14 days of treatment
[7] = mean ± SEM after 30 days of treatment
[8] = group mean, data used for Table 15 (14 days of treatment)
[9] = group mean, data used for Table 16 (30 days of treatment)

SMILES: C[C@]12CCC(=O)C=C1CC[C@@H]1[C@@H]2[C@@H](O)C[C@]2(C=O)[C@@H](C(=O)CO)CC[C@@H]12 [Aldosterone]
- Osteopontin expression in the heart (immunostaining) [1]: clearly identified in the media of coronary arteries
- Osteop-pontin mRNA (AU) ([2]; after 7 days of treatment): 1.91 AU
- Osteopontin expression upregulation ([2]; after 14 days of aldosterone + salt treatment): ~6 fold
- Osteop-pontin mRNA (AU) ([2]; after 14 days of treatment): 6.56 AU
- Osteopontin expression upregulation ([2]; after 30 days of aldosterone + salt treatment): ~13 fold
- Osteop-pontin mRNA (AU) ([2]; after 30 days of treatment): 13.27 AU
- Osteopontin (AU) ([2]; data used for Table 17 (7-day protocol), listed as Aldosterone + salt): 1.84 AU and 0.84 AU and 0.95 AU and 1.05 AU and 1.08 AU and 4.92 AU and 3.29 AU and 1.32 AU and 28.64 AU
- Osteopontin (AU) ([2]; data used for Table 18 (14-day protocol), listed as Aldosterone + salt): 8.14 AU and 1.02 AU and 6.19 AU and 4.06 AU and 12.04 AU and 2.35 AU and 8.25 AU and 10.41 AU and 81.29 AU
- Osteopontin (AU) ([2]; data used for Table 19 (30-day protocol), listed as Aldosterone + salt): 13.13 AU and 11.43 AU and 13.78 AU and 7.97 AU and 18.44 AU and 14.88 AU
- Collagen-III (AU) [3, 5]: 1.42 ± 0.12 AU
- Collagen-III (AU) [3, 6]: 1.08 ± 0.14 AU
- Collagen-III (AU) [3, 7]: 1.39 ± 0.20 AU
- Collagen-III mRNA (AU) [3, 8]: 1.08 AU
- Collagen-III mRNA (AU) [3, 9]: 1.39 AU
- Collagen-III mRNA (AU) ([3]; individual rats, data used for Table 15 (14 days of treatment), incl. rat marked * excluded from statistics, listed as Aldosterone + salt): 0.76 AU and 1.80 AU and 0.44 AU and 1.39 AU and 1.17 AU and 1.24 AU and 1.06 AU and 1.31 AU and 0.59 AU and 1.22 AU
- Collagen-III mRNA (AU) ([3]; individual rats, data used for Table 16 (30 days of treatment), incl. rat marked * excluded from statistics, listed as Aldosterone + salt): 0.75 AU and 0.58 AU and 1.99 AU and 0.72 AU and 2.04 AU and 1.43 AU and 1.82 AU and 1.89 AU and 1.28 AU

SMILES: COC(=O)[C@@H]1CC2=CC(=O)CC[C@]2(C)[C@@]23O[C@@H]2C[C@@]2(C)[C@@H](CC[C@@]24CCC(=O)O4)[C@H]13 [Eplerenone]
- Osteopontin expression in the heart (immunostaining) [1]: prevented the expression of osteopontin
- Osteopontin expression in the heart (immunostaining) ([1]; listed as eplerenone): prevention
- Osteop-pontin mRNA (AU) ([2]; after 7 days of treatment): 0.75 AU
- Osteop-pontin mRNA (AU) ([2]; after 14 days of treatment): 2.94 AU
- Osteop-pontin mRNA (AU) ([2]; after 30 days of treatment): 2.59 AU
- Osteopontin (AU) ([2]; data used for Table 17 (7-day protocol), listed as Eplerenone + aldosterone + salt): 0.54 AU and 1.24 AU and 0.52 AU and 0.27 AU and 0.60 AU and 1.13 AU and 0.96 AU and 0.75 AU
- Osteopontin (AU) ([2]; data used for Table 18 (14-day protocol), listed as Eplerenone + aldosterone + salt): 4.03 AU and 1.00 AU and 0.77 AU and 8.43 AU and 1.59 AU and 3.97 AU and 3.93 AU and 2.13 AU and 0.72 AU and 4.76 AU and 0.99 AU
- Osteopontin (AU) ([2]; data used for Table 19 (30-day protocol), listed as Eplerenone + aldosterone + salt): 1.53 AU and 3.28 AU and 1.98 AU and 8.91 AU and 1.88 AU and 1.97 AU and 1.28 AU and 1.43 AU and 1.01 AU and 54.57 AU
- Osteopontin mRNA expression ([2]; myocardium, aldosterone + salt, 7, 14, 30 days, eplerenone 100 mg/kg/day): inhibition; also recorded: significantly reduced
- Collagen-III (AU) [3, 5]: 1.09± 0.21 AU
- Collagen-III (AU) [3, 6]: 1.61 ± 0.26 AU
- Collagen-III (AU) [3, 7]: 1.53 ± 0.23 AU
- Collagen-III mRNA (AU) [3, 8]: 1.61 AU
- Collagen-III mRNA (AU) [3, 9]: 1.53 AU
- Collagen-III mRNA (AU) ([3]; individual rats, data used for Table 15 (14 days of treatment), incl. rat marked * excluded from statistics, listed as Eplerenone + aldosterone + salt): 0.60 AU (2×) and 1.19 AU and 1.16 AU and 1.24 AU and 1.70 AU and 1.81 AU and 1.61 AU and 2.21 AU and 1.80 AU and 3.77 AU
- Collagen-III mRNA (AU) ([3]; individual rats, data used for Table 16 (30 days of treatment), incl. rat marked * excluded from statistics, listed as Eplerenone + aldosterone + salt): 0.95 AU and 0.72 AU and 1.37 AU and 0.89 AU and 1.26 AU and 1.87 AU and 1.66 AU and 2.89 AU and 2.16 AU and 0.73 AU
- IL-6 expression [4]: attenuated

From patent publication US6716829B2, “Aldosterone antagonist and cyclooxygenase-2 inhibitor combination therapy to prevent or treat inflammation-related cardiovascular disorders” (Pharmacia Corporation, priority 2000, dated 2004)
